Measurements published in patent publication US20220257569A1, “INDOLE-OXADIAZOLE COMPOUNDS AND THEIR THERAPEUTIC USE” (THE GOVERNING COUNCIL OF THE UNIVERSITY OF TORONTO, priority 2018, published 2022).
“Also recorded” adds a separate entry of the source.

Columns and labels:
[1] = tested on: GluN1KD mice; assay: Open field test in GluN1KD mice and WT littermates; assay type: in vivo; conditions: 10 mg/kg; for Locomotor Activity (total distance traveled) / Stereotypy (total stereotypic movements) / Vertical Activity (total): mean±SEM
Description: Functional NMDARs are composed of a common GluN1 subunit and one of four GluN2 subunits (GluN2A-GluN2D) combined in an undetermined ratio to make the heteromeric receptor complex. Recent studies using post mortem prefrontal cortex samples from patients with SCZ and depression, display a series of changes in NMDAR regulation. Endocannabinoids, via CB1Rs, control the presence of NR1 C1 subunits in the neural membrane which has implications for psychosis and SCZ. […] The GluN1KD (NMDAR hypofunction model) mouse line expresses 5-10% of the normal level of the subunit. GluN1KD mice display behavioural abnormalities that have been related to SCZ; these behaviours are normalized by the antipsychotics haloperidol and clozapine. At the dopamine level, GluN1KD mice have remodelled dopamine neurons, leading to a state of hyperdopaminergia, manifesting as an increase in tonic firing rates of dopaminergic neurons (Ferris et al., 2014).
(§1) Adult (>P70) GluN1-knockdown (GluN1KD—F1: C571Bl/6J x 129S1/SvlmJ) and DAT-knockout (DATKO—C57Bl/6J), balanced for sex, were treated with either vehicle (1:1:18-Tween80:95% ethanol:saline) or a novel CB1 negative allosteric modulator (CB1 NAM), ABM300, at 10 mg/kg, was tested in behavioural assays, and compared to littermate controls. Locomotor, stereotypic movements and vertical activity were tested, along with anxiety/mania and sensorimotor gating behaviours. All data were analyzed with two- or three-way ANOVA, as appropriate, and corrected for multiple comparisons.
Classically, locomotor output has been used as a gold standard for the measure of dopamine system dysfunction. The role of dopamine in movement control is well defined and, in its simplest forms, testing for hyperactivity is based on the premise that enhanced dopaminergic activity in rodents leads to enhanced motor activity (van den Buuse et al., 2010). Locomotor, stereotypic and vertical activity was recorded using digital activity monitors, quantifying horizontal and vertical activity, along with repetitive behaviour, via infrared beam breaks. GluN1 KD and DATKO display basal hyperactivity, with increases in stereotypic behaviours which can be ameliorated with antipsychotics (Peleg-Raibstein et al., 2008).

[2] = molecular target: T1, cannabinoid CB1 receptor (Homo sapiens, UniProt P21554); assay: PathHunter β-Arrestin assay (allosteric inhibition of agonist Emax); assay type: cell-based; conditions: FIG. 1; agonist CP55,940; calculated by GraphPad Prism; read-out: IC50 for reduction of Emax of CP55,940
T1 construct: host or cells: HEK293 CB1 β-arrestin cells
T1 sequence (P21554 whole entry): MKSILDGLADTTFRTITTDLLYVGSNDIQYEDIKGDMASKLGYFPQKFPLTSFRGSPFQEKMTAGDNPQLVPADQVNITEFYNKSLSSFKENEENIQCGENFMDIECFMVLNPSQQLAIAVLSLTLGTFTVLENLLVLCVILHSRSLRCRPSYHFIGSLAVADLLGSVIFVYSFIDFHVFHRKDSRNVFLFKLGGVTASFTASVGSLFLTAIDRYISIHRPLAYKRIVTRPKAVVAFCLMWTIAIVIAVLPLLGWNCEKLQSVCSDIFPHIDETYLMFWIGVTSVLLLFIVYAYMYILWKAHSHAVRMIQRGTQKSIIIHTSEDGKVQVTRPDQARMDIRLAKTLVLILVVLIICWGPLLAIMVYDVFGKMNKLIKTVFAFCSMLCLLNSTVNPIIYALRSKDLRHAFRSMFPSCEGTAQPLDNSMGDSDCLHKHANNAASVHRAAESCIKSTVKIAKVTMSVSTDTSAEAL

[3] = tested on: mice fed a HFD diet; assay: Non-alcoholic fatty liver disease (NAFLD) model, high fat diet mice; assay type: in vivo
Method: Hepatic triglycerides were measured using an ethanolic-KOH saponification method for lysing liver tissue and hydrolyzing triglyceride molecules to release free glycerol.
Serum ALT, a marker for liver damage, was assessed using an Infinity™ ALT Liquid Stable Reagent (ThermoFisher).
A) A representative vehicle-treated liver is characterized by extensive cytoplasmic clearing indicative of both microvesicular and macrovesicular steatosis. […] Formalin-fixed livers were sectioned at […] and stained using standard H&E staining.
A) A representative vehicle-treated liver is characterized by regions of large ORO-stained vacuoles. […] Frozen OCT-fixed livers were cryosectioned at […] and stained using a conventional ORO staining technique, which stains for neutral lipids.
Diet-induced obese (DIO) mouse models can recapitulate the endocrine and metabolic dysfunction observed in obese humans, and thus serve as ideal preclinical models fortesting novel therapeutic compounds. To induce fatty liver or NAFL, male C57BL/6 mice (n=10 vehicle; n=10 CB1 NAM) are fed a high fat diet (60% calories from fat, TD.06414) for a minimum of 8 weeks starting at 6 weeks of age. Control mice (n=10; vehicle TD.08806) are fed a diet consisting of 10% calories from fat. Mice are weighed weekly to monitor weight gain, and food consumption assessed as the average amount of food consumed per day to determine a potential central effect on appetite suppression. […] Mice are dosed daily with 5 or 10 mg/kg indole-oxadiazole or vehicle (5% ethanol: 5% Tween 80:90% saline) by i.p. administration. After 28 days of administration, glucose tolerance and insulin tolerance tests are conducted on separate days. Blood is collected by terminal cardiac puncture under isoflurane anesthetic followed by cervical dislocation to collect sufficient volumes for the subsequent measurement of multiple analytes (insulin, ALT, triglycerides, adiponectin, leptin). Liver is weighed and collected in formalin (H&E staining for histopathology) and OCT (Oil Red O staining for lipid) or snap frozen for mRNA, protein and the assessment of hepatic triglycerides. Gene expression analyses is conducted to assess the levels of CB1 receptor, FAAH, and various lipogenic and fatty acid transport genes.

[4] = tested on: DATKO mice; assay: Pre-pulse inhibition (PPI) of acoustic startle response; assay type: in vivo; conditions: 10 mg/kg
Method: as §1
Loss of PPI is a common symptom found in SCZ and is widely accepted as an endophenotype. It is commonly considered an “interface” of psychosis and cognition. PPI deficits have been described in other psychiatric diseases; during acute mania in BD (Perry et al., 2001). PPI was measured via automated startle boxes. GluN1 KD and DATKO mice all display deficits in PPI, and this behaviour is responsive to treatment with antipsychotics.

[5] = WT (F1: C57Bl/6J x 129S1/SvlmJ) mice, open field
[6] = HFD 8 weeks, then 10 mg/kg daily for 4 weeks
[7] = HFD 8 weeks, then 10 mg/kg daily for 4 weeks, non-fasted mice
[8] = mouse model of fatty liver disease

- IC50 [2]: 1 nM
- melting point: 252 to 254 °C
Compound: CCc1c(-c2nnc(Nc3ccccc3)o2)[nH]c2ccc(Cl)cc12 [ABM300, 5-(5-Chloro-3-ethyl-1H-indol-2-yl)-N-phenyl-1,3,4-oxadiazol-2-amine]
- effect on hyperactivity (in words) ([1]; GluN1KD mice): reduces hyperactivity
- effect on abnormal stereotypic behaviours (in words) ([1]; GluN1KD mice, open field): reduces abnormal stereotypic behaviours
- effect on abnormal vertical exploration (risk-taking behaviour) (in words) ([1]; GluN1KD mice, open field): reduces abnormal vertical exploration
- Locomotor Activity (total distance traveled) ([1]; GluN1KD mice, open field): 5857 ± 1242 cm
- Stereotypy (total stereotypic movements) ([1]; GluN1KD mice, open field): 891 ± 93
- Vertical Activity (total) ([1]; GluN1KD mice, open field): 479 ± 142
- Locomotor Activity (total distance traveled) [1, 5]: 688 ± 193 cm
- Stereotypy (total stereotypic movements) [1, 5]: 298.80 ± 45
- Vertical Activity (total) [1, 5]: 43.91 ± 26
- Hepatic Triglycerides [3, 6]: 48.9 ± 14.6 mg/g tissue weight
- Serum ALT (ALT activity) [3, 6]: 18.1 ± 4.0 U/L
- Oil Red O (ORO) stained liver sections (in words) [3, 7]: smaller ORO-stained vacuoles
- effect on macrovesicular and microvesicular steatosis, H&E stained liver sections (in words) [3, 7]: reduces the macrovesicular and microvesicular steatosis; also recorded: cytoplasmic clearing characteristic of glycogen accumulation
- effect on levels of triglycerides (in words) [3, 8]: significantly reduces
- effect on serum ALT (in words) [3, 8]: significantly reduces
- effect on sensorimotor gating deficits, pre-pulse inhibition (in words) [4]: rescues sensorimotor gating deficits
